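Following 48 hours of exposure in 96-well plates, responses at five concentrations were used to interpolate endpoints linearly. Here, GI50 denotes the concentration required for 50% inhibition of growth.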 Calls of active or inactive are those of the source. Cut-off read from the data, not from the text of the source: active = GI50 up to about 1.1 µM and inactive = higher.
Assays:
Test in all cases: NCI anticancer screen, dose series, 48 h
OVCAR-4 = test system: OVCAR-4
SF-539 = test system: SF-539
MDA-N = test system: MDA-N
LOX IMVI = test system: LOX IMVI
SF-295 = test system: SF-295
COLO 205 = test system: COLO 205
MCF7 = test system: MCF7
PC-3 = test system: PC-3
CAKI-1 = test system: CAKI-1
HT-29 = test system: HT-29
EKVX = test system: EKVX
MDA-MB-231 = test system: MDA-MB-231
CCRF-CEM = test system: CCRF-CEM
UACC-62 = test system: UACC-62
HCT-15 = test system: HCT-15
NCI-H226 = test system: NCI-H226
NCI-H460 = test system: NCI-H460
UACC-257 = test system: UACC-257

SMILES	GI50 (OVCAR-4)	GI50 (SF-539)	GI50 (MDA-N)	GI50 (LOX IMVI)	GI50 (SF-295)	GI50 (COLO 205)	GI50 (MCF7)	GI50 (PC-3)	GI50 (CAKI-1)	GI50 (HT-29)	GI50 (EKVX)	GI50 (MDA-MB-231)	GI50 (CCRF-CEM)	GI50 (UACC-62)	GI50 (HCT-15) [µM]	GI50 (NCI-H226)	GI50 (NCI-H460)	GI50 (UACC-257)
CC(C)(C)[Si](C)(C)OCC1OC(n2ccc(=O)[nH]c2=O)C(O[Si](C)(C)C(C)(C)C)[C@]12O[C@@H]2CO (stereo partly drawn)	13.6 µM (inactive)	21.5 µM (inactive)	20.9 µM (inactive)	16.3 µM (inactive)	10.3 µM (inactive)	17.5 µM (inactive)	12.1 µM (inactive)	4.58 µM (inactive)	20.4 µM (inactive)	10.6 µM (inactive)	17 µM (inactive)	19.5 µM (inactive)	> 10 µM (inactive)	16.3 µM (inactive)	11.9	13.8 µM (inactive)	14 µM (inactive)	18.2 µM (inactive)
C=CCC1CC(n2cc(C)c(=O)[nH]c2=O)OC1CO[Si](C)(C)C(C)(C)C (stereo not drawn)	12.1 µM (inactive)	13.8 µM (inactive)	14 µM (inactive)	13 µM (inactive)	17.6 µM (inactive)	13.5 µM (inactive)	11.5 µM (inactive)	11.4 µM (inactive)	13.7 µM (inactive)	15.9 µM (inactive)	7.52 µM (inactive)	13.7 µM (inactive)	12.1 µM (inactive)	17.2 µM (inactive)	15.3	13.2 µM (inactive)	16.5 µM (inactive)	17.2 µM (inactive)
CCCCCCCCCCCCCCCCNc1nc(=O)n(C2CC(O)C(CO)O2)cc1F (stereo not drawn)	15.7 µM (inactive)	0.284 µM (active)	16 µM (inactive)	10.5 µM (inactive)	16.5 µM (inactive)	12.7 µM (inactive)	1.33 µM (inactive)	3.93 µM (inactive)	2.1 µM (inactive)	9.84 µM (inactive)	14.6 µM (inactive)	21.7 µM (inactive)	> 10 µM (inactive)	10.7 µM (inactive)	0.875	1.28 µM (inactive)	10.7 µM (inactive)	16.7 µM (inactive)
c1ccc(Nc2nn3c(CCCCCCCCc4nnc5sc(Nc6ccccc6)nn45)nnc3s2)cc1	21.8 µM (inactive)	56.5 µM (inactive)	18.4 µM (inactive)	22.1 µM (inactive)	24.4 µM (inactive)	19.5 µM (inactive)	26.4 µM (inactive)	31 µM (inactive)	29 µM (inactive)	21.9 µM (inactive)	23.3 µM (inactive)	28.7 µM (inactive)	20.4 µM (inactive)	34.6 µM (inactive)	36.5	40.9 µM (inactive)	32.4 µM (inactive)	34.2 µM (inactive)
COc1cc(S(=O)(=O)Nc2nc(-c3ccc(N4C(=O)C(CC(=O)O)SC4c4ccccc4O)cc3)cs2)ccc1Cl (stereo not drawn)	34.3 µM (inactive)	> 100 µM (inactive)	> 100 µM (inactive)	> 100 µM (inactive)	51.2 µM (inactive)	83.4 µM (inactive)	42.5 µM (inactive)	59.4 µM (inactive)	> 100 µM (inactive)	90.8 µM (inactive)		> 100 µM (inactive)		72.9 µM (inactive)	47.5	61.4 µM (inactive)	82.4 µM (inactive)	88.7 µM (inactive)
